Test results: patent US20210348120A1, “Polarised Three-Dimensional Cellular Aggregates” (CAMBRIDGE ENTERPRISE LIMITED, priority 2018, published 2021)

Test system: gastruloid cardiac portion
Assay: Calcium imaging of the gastruloid cardiac portion
Type: cell-based, mouse
Conditions: 168 h gastruloids, 1 μM, light sheet imaging with Cal-520
Method: To image calcium fluxes, gastruloids were incubated for 1 h with 8 μM Cal-520 (AAT Bioquest) at 37° C., 5% CO2. Gastruloids were then transferred to fresh medium before imaging. Imaging was performed with a Light sheet Z1 microscope (Zeiss) equipped with an environmental chamber to maintain gastruloids at 37° C. and 5% CO2. For imaging, gastruloids were embedded in 1% low melt agarose and the chamber was filled with culture medium. Nifidepine (Sigma Aldrich, 10 μM) and Isoproterenol (Isoprenaline hydrochloride, Sigma 15627, 1 μM) were added with a syringe directly to the imaging chamber during acquisition. The analysis of calcium spikes was performed with the Fiji Stacks-plot Z-Axis profile plugin. The baseline intensity was normalized to the minimum value over 10 sec.

Compound: CC(C)NCC(O)c1ccc(O)c(O)c1 (stereo not shown) [isoproterenol, Isoproterenol]
- calcium spiking frequency: increase in spiking frequency
